Measurements as given in US20250108038A1 (priority 2023, published 2025).
Several values for one entry are separate records, joined by “and”; a condition that tells them apart may be missing. Identical values can stand only once.

Test system: Long Evans rats
Test: Behavioral satiety sequence (BSS)
Type: in vivo, Long Evans rat
Text: The Behavioural Satiety Sequence (BSS) is a technique used to evaluate physiological satiety. It is based on the expression of a sequence of behaviors including eating, grooming, locomotor activity, followed by resting, which are typically observed in rodents post-ingestion (Halford et al, 1998, Pharmacology Biochemistry and Behaviour. 61(2): 159-168). The BSS is a widely used model for determining the effects of novel pharmaceuticals on food intake and measures of satiety in rodents (Oliveira et al, 2011, Revista de Nutrição. 24(4) 619-628), and to discriminate the cause of reduced food intake following pharmacological manipulation. For example, treatments that may reduce food intake by non-specific mechanisms, such as immobility, malaise, and taste adulteration, will disrupt this sequence (Halford et al, 1998, Pharmacology Biochemistry and Behaviour. 61(2): 159-168).
Specifically, 12 male Long-Evans rats were food-deprived for 22 h with a 2 h feeding period each day. Rats were trained to consume daily food during the 2 h period over 25 days. The testing phase was initiated once the rats consistently consumed 16-18 g of food per day with ≤10% variance in amount of feed consumed. Feeding took place in designated individual boxes in a quiet room separate from the housing room. Continuous remote monitoring via video camera during feeding was used to assess the BSS. Food consumption was measured by weighing the total available food before and after the 2 h feeding window, correcting for spillage. Lorcaserin (1 mg/kg) was included as a reference control (Higgins et al, 2011, Neuropsychopharmacology. 37(5): 1177-1191). Subjects were tested using a repeated-measures, Latin square design with 2-3 days wash-out between treatment cycles.
On scheduled test days, animals were monitored remotely via video camera during the feeding access period. The occurrence of four mutually exclusive behaviors (eating/drinking, grooming, active, rest) were individually scored. Over the 2 h feeding period, behaviors were assessed every 30 seconds. Scores were compiled into 23 5 min timebins (timebin 24 was removed due to early removal of animals) and the frequency of each behavior within each timebin was calculated to determine a temporal frequency of each measure (Rodgers et al, 2010, Pharmacology Biochemistry and Behaviour. 97: 3-14). Percentage time was plotted for each behavioral sequence in each timebin to compare between treatment groups (Higgins et al, 2011, Neuropsychopharmacology. 37(5): 1177-1191).

[1] = Compound I-19 0.1 mg/kg, AVG of animals LT-1 to LT-12, 0-0.5 hours
[2] = Compound I-19 0.1 mg/kg, raw data per animal LT-1 to LT-12, 0-0.5 hours
[3] = Compound I-19 0.1 mg/kg, raw score per animal (LT-1 to LT-12)
[4] = Compound I-19 0.3 mg/kg, AVG of animals LT-1 to LT-12

Clc1ccc(C2(OCC3OCCO3)c3ccccc3C3=NCCN32)cc1 (stereo not drawn) [Compound I-19]
BSS scoring E (eating/drinking), Time Bin 4 (15-20 TOTAL), AVG [1]: 0.87
BSS scoring E (eating/drinking), Time Bin 5 (20-25 TOTAL), AVG [1]: 0.89
BSS scoring E (eating/drinking), Time Bin 6 (25-30 TOTAL), AVG [1]: 0.81
BSS scoring G (grooming), Time Bin 1 (0-5 TOTAL), AVG [1]: 0.02
BSS scoring G (grooming), Time Bin 2 (5-10 TOTAL), AVG [1]: 0.00
BSS scoring G (grooming), Time Bin 3 (10-15 TOTAL), AVG [1]: 0.03
BSS scoring G (grooming), Time Bin 4 (15-20 TOTAL), AVG [1]: 0.03
BSS scoring G (grooming), Time Bin 5 (20-25 TOTAL), AVG [1]: 0.00
BSS scoring G (grooming), Time Bin 6 (25-30 TOTAL), AVG [1]: 0.04
BSS scoring R (resting), Time Bin 1 (0-5 TOTAL), AVG [1]: 0.00
BSS scoring R (resting), Time Bin 2 (5-10 TOTAL), AVG [1]: 0.00
BSS scoring R (resting), Time Bin 3 (10-15 TOTAL), AVG [1]: 0.00
BSS scoring R (resting), Time Bin 4 (15-20 TOTAL), AVG [1]: 0.02
BSS scoring R (resting), Time Bin 5 (20-25 TOTAL), AVG [1]: 0.03
BSS scoring R (resting), Time Bin 6 (25-30 TOTAL), AVG [1]: 0.02
BSS scoring A (active), Time Bin 1 (0-5 TOTAL) [2]: 0 (3×) and 1 (7×) and 2 (2×)
BSS scoring A (active), Time Bin 2 (5-10 TOTAL) [2]: 1 (5×) and 0 (7×)
BSS scoring A (active), Time Bin 3 (10-15 TOTAL) [2]: 1 (3×) and 0 (9×)
BSS scoring A (active), Time Bin 4 (15-20 TOTAL) [2]: 5 and 0 (8×) and 4 and 1 (2×)
BSS scoring A (active), Time Bin 5 (20-25 TOTAL) [2]: 1 (3×) and 0 (7×) and 3 (2×)
BSS scoring A (active), Time Bin 6 (25-30 TOTAL) [2]: 3 (2×) and 1 (6×) and 0 (3×) and 4
BSS scoring E (eating/drinking), Time Bin 1 (0-5 TOTAL) [2]: 10 (3×) and 8 (4×) and 9 (5×)
BSS scoring E (eating/drinking), Time Bin 2 (5-10 TOTAL) [2]: 9 (5×) and 10 (7×)
BSS scoring E (eating/drinking), Time Bin 3 (10-15 TOTAL) [2]: 9 (6×) and 10 (6×)
BSS scoring E (eating/drinking), Time Bin 4 (15-20 TOTAL) [2]: 5 and 10 (5×) and 9 (5×) and 4
BSS scoring E (eating/drinking), Time Bin 5 (20-25 TOTAL) [2]: 9 (3×) and 10 (6×) and 6 and 7 (2×)
BSS scoring E (eating/drinking), Time Bin 6 (25-30 TOTAL) [2]: 5 (2×) and 8 (4×) and 9 (2×) and 10 (3×) and 7
BSS scoring G (grooming), Time Bin 1 (0-5 TOTAL) [2]: 0 (10×) and 1 (2×)
BSS scoring G (grooming), Time Bin 2 (5-10 TOTAL) [2]: 0
BSS scoring G (grooming), Time Bin 3 (10-15 TOTAL) [2]: 0 (9×) and 1 (3×)
BSS scoring G (grooming), Time Bin 4 (15-20 TOTAL) [2]: 0 (9×) and 1 (3×)
BSS scoring G (grooming), Time Bin 5 (20-25 TOTAL) [2]: 0
BSS scoring G (grooming), Time Bin 6 (25-30 TOTAL) [2]: 0 (7×) and 1 (5×)
BSS scoring R (resting), Time Bin 1 (0-5 TOTAL) [2]: 0
BSS scoring R (resting), Time Bin 2 (5-10 TOTAL) [2]: 0
BSS scoring R (resting), Time Bin 3 (10-15 TOTAL) [2]: 0
BSS scoring R (resting), Time Bin 4 (15-20 TOTAL) [2]: 0 (10×) and 1 (2×)
BSS scoring R (resting), Time Bin 5 (20-25 TOTAL) [2]: 0 (9×) and 1 (2×) and 2
BSS scoring R (resting), Time Bin 6 (25-30 TOTAL) [2]: 2 and 0 (11×)
BSS scoring A (active), Time Bin 19 (90-95 TOTAL) [3]: 8 and 2 (6×) and 5 and 1 and 7 and 0 and 3
BSS scoring A (active), Time Bin 20 (95-100 TOTAL) [3]: 1 (4×) and 0 (4×) and 2 (3×) and 6
BSS scoring A (active), Time Bin 21 (100-105 TOTAL) [3]: 0 (8×) and 3 and 1 and 4 and 2
BSS scoring A (active), Time Bin 22 (105-110 TOTAL) [3]: 0 (6×) and 4 and 1 (2×) and 2 and 5 and 3
BSS scoring A (active), Time Bin 23 (110-115 TOTAL) [3]: 1 and 0 (5×) and 4 and 2 (2×) and 8 and 5 and 3
BSS scoring A (active), Time Bin 24 (115-120 TOTAL) [3]: 0 (5×) and 4 and 1 (2×) and 2 (2×) and 3 and 6
BSS scoring E (eating/drinking), Time Bin 19 (90-95 TOTAL) [3]: 2 and 4 (3×) and 6 and 0 and 7 (3×) and 3 and 10 and 8
BSS scoring E (eating/drinking), Time Bin 20 (95-100 TOTAL) [3]: 9 and 5 and 10 (3×) and 7 (2×) and 0 and 8 and 6 (2×) and 3
BSS scoring E (eating/drinking), Time Bin 21 (100-105 TOTAL) [3]: 10 (3×) and 3 and 9 (3×) and 0 and 8 (2×) and 5 and 6
BSS scoring E (eating/drinking), Time Bin 22 (105-110 TOTAL) [3]: 10 (2×) and 3 and 9 (2×) and 0 and 6 (2×) and 8 (3×) and 4
BSS scoring E (eating/drinking), Time Bin 23 (110-115 TOTAL) [3]: 9 (5×) and 10 and 3 (2×) and 0 and 4 and 5 and 7
BSS scoring E (eating/drinking), Time Bin 24 (115-120 TOTAL) [3]: 10 (2×) and 5 and 8 (3×) and 2 and 0 (2×) and 6 and 1 and 4
BSS scoring G (grooming), Time Bin 19 (90-95 TOTAL) [3]: 0 (8×) and 1 (4×)
BSS scoring G (grooming), Time Bin 20 (95-100 TOTAL) [3]: 0 (8×) and 2 (2×) and 1 (2×)
BSS scoring G (grooming), Time Bin 21 (100-105 TOTAL) [3]: 0 (8×) and 1 (3×) and 2
BSS scoring G (grooming), Time Bin 22 (105-110 TOTAL) [3]: 0 (8×) and 2 and 1 (3×)
BSS scoring G (grooming), Time Bin 23 (110-115 TOTAL) [3]: 0 (8×) and 1 (4×)
BSS scoring G (grooming), Time Bin 24 (115-120 TOTAL) [3]: 0 (9×) and 1 (2×) and 2
BSS scoring R (resting), Time Bin 19 (90-95 TOTAL) [3]: 0 (7×) and 4 and 1 (2×) and 9 and 3
BSS scoring R (resting), Time Bin 20 (95-100 TOTAL) [3]: 0 (6×) and 2 (2×) and 10 and 1 (3×)
BSS scoring R (resting), Time Bin 21 (100-105 TOTAL) [3]: 0 (7×) and 4 and 1 (2×) and 10 and 2
BSS scoring R (resting), Time Bin 22 (105-110 TOTAL) [3]: 0 (4×) and 1 (5×) and 8 and 3 and 2
BSS scoring R (resting), Time Bin 23 (110-115 TOTAL) [3]: 0 (3×) and 2 (2×) and 1 (6×) and 4
BSS scoring R (resting), Time Bin 24 (115-120 TOTAL) [3]: 0 (8×) and 1 (2×) and 8 and 5
BSS scoring A (active), Time Bin 19 (90-95 TOTAL), AVG [4]: 0.21
BSS scoring A (active), Time Bin 20 (95-100 TOTAL), AVG [4]: 0.17
BSS scoring A (active), Time Bin 21 (100-105 TOTAL), AVG [4]: 0.06
BSS scoring A (active), Time Bin 22 (105-110 TOTAL), AVG [4]: 0.08
BSS scoring A (active), Time Bin 23 (110-115 TOTAL), AVG [4]: 0.28
BSS scoring A (active), Time Bin 24 (115-120 TOTAL), AVG [4]: 0.14
BSS scoring E (eating/drinking), Time Bin 19 (90-95 TOTAL), AVG [4]: 0.63
BSS scoring E (eating/drinking), Time Bin 20 (95-100 TOTAL), AVG [4]: 0.69
BSS scoring E (eating/drinking), Time Bin 21 (100-105 TOTAL), AVG [4]: 0.73
BSS scoring E (eating/drinking), Time Bin 22 (105-110 TOTAL), AVG [4]: 0.69
BSS scoring E (eating/drinking), Time Bin 23 (110-115 TOTAL), AVG [4]: 0.52
BSS scoring E (eating/drinking), Time Bin 24 (115-120 TOTAL), AVG [4]: 0.44
